Results from patent publication US20060093597A1, “Methods of treating involuntary facial spasms and facial wrinkles” (priority 2002, published 2006).
Where two headings read alike, the source gives them in different places.

Columns and labels:
[1] = tested on: Botox-induced symptoms; assay type: in vivo, mouse; conditions: for reading of Botox-induced muscle weakness after topical DAP: n=7
[2] = tested on: neuromuscular blockade; conditions: effective-dose comparison with PMB; cited from earlier work
[3] = tested on: various bacteria; conditions: cited from earlier work
[4] = tested on: mice; conditions: effective-dose comparison with PMB; cited from earlier work
[5] = tested on: rat mast cells; conditions: cited from earlier work
[6] = tested on: eukaryotic cytotoxicity; conditions: cited from earlier work
[7] = in vivo; cited from earlier work

Row | Molecule | reading of Botox-induced muscle weakness after topical DAP ([1]; at 1 hour) | reading of Botox-induced muscle weakness after topical DAP ([1]; at 4 hour) | reading later in the experiment ([1]; mouse, in vivo) | response to topical administration ([1]; mouse, in vivo) | fold less active than PMB in causing neuromuscular blockade [2] [times] | MIC compared to parent molecule PMB [3] | fold less toxic than PMB, acute toxicity [4] [times] | fold less active than PMB in releasing histamine [5] [time] | fold less toxic than PMB, cytotoxicity [6] [times] | half-life [7]
1 | Nc1ccncc1N [DAP, 3,4-diaminopyridine] | 1.5 | 0.75 | the reading went up | rapid response | – | – | – | – | – | –
2 | Polymyxin B nonapeptide [PMBN] | – | – | – | – | 150 | increased up to thousand folds | 15 | 25 | 100 | approximately 25 minutes
